Experimental data taken from patent US6727264B1 (Synaptic Pharmaceutical Corporation, priority 2001, dated 2004).

biological target: rat MCH-1 (Rattus norvegicus, UniProt P97639); test: Radioligand binding assay at cloned rat MCH1 receptor ([3H] Compound A); parameters: host or cells: Peak rapid 293 (Peakr293) cells, transient calcium phosphate transfection, membranes; conditions: cloned rat MCH1 receptor, membranes from Peakr293 cells, 0.08 nM [3H] Compound A; read-out: Ki (nM) rMCH1
Sequence (P97639 whole entry): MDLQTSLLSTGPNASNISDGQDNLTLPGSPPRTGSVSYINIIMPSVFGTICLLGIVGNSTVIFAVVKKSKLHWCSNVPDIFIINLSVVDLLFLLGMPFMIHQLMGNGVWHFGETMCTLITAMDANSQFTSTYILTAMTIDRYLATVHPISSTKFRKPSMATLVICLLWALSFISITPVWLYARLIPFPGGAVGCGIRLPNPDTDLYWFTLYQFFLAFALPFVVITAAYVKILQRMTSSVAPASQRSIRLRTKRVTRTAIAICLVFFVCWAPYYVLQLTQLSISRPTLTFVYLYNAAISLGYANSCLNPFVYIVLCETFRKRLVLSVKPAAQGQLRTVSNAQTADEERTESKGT

Row | SMILES | Ki
1 | Cc1onc(-c2c(Cl)cccc2Cl)c1C(=O)OCCCCCCN1CCC(c2cccc(NC(=O)C(C)C)c2)CC1 [Example 297, 6-{4-[3-(ISOBUTYRYLAMINO)PHENYL]-1-PIPERIDINYL}HEXYL 3-(2,6-DICHLOROPHENYL)-5-METHYL-4-ISOXAZOLECARBOXYLATE] | 11.9 nM
2 | Cc1onc(-c2ccccc2Cl)c1C(=O)OC(CCCN1CCC(c2cccc(NC(=O)C(C)C)c2)CC1)c1ccccc1 (stereo not drawn) [Example 300, 4-{4-[3-(ISOBUTYRYLAMINO)PHENYL]-1-PIPERIDINYL}-1-PHENYLBUTYL 3-(2-CHLOROPHENYL)-5-METHYL-4-ISOXAZOLECARBOXYLATE] | 7.6 nM
3 | CC(C)C(=O)Nc1cccc(C2CCN(CC[C@H](NC(=O)C(c3ccccc3)c3ccccc3)c3ccccc3)CC2)c1 [Example 304] | 4 nM
4 | CC(C)C(=O)Nc1cccc(C2CCN(CC[C@H](NC(=O)c3ccc(-c4ccccc4)cc3)c3ccccc3)CC2)c1 [Example 308] | 402 nM
5 | CC(C)C(=O)Nc1cccc(C2CCN(CC[C@H](NC(=O)c3ccccn3)c3ccccc3)CC2)c1 [Example 309] | 310 nM
6 | Cc1onc(-c2c(F)cccc2Cl)c1C(=O)N[C@@H](CCN1CCC(c2cccc(NC(=O)C(C)C)c2)CC1)c1ccccc1 [Example 313] | 249 nM
7 | CC(C)C(=O)Nc1cccc(C2CCN(CC[C@H](NC(=O)c3cccnc3Oc3ccccc3)c3ccccc3)CC2)c1 [Example 315] | 11.4 nM
8 | CC(C)C(=O)Nc1cccc(C2CCN(CC[C@H](NC(=O)c3ccc(Oc4cc(Cl)cc(Cl)c4)[nH]3)c3ccccc3)CC2)c1 [Example 318] | 251 nM
9 | CCCc1nn(-c2ccccc2)cc1C(=O)N[C@@H](CCN1CCC(c2cccc(NC(=O)C(C)C)c2)CC1)c1ccccc1 [Example 321] | 50.9 nM
10 | CC(C)C(=O)Nc1cccc(C2CCN(CC[C@H](NC(=O)c3ccc(N(C)C)cc3)c3ccccc3)CC2)c1 [Example 322] | 99.9 nM
11 | CC(C)C(=O)Nc1cccc(C2CCN(CCCNC(=O)c3csc4ccccc34)CC2)c1 [Example 330] | 215 nM
12 | Cc1onc(-c2c(Cl)cccc2Cl)c1C(=O)NCCCN1CCC(c2cccc(NC(=O)C(C)C)c2)CC1 [Example 332] | 29 nM
13 | CC(C)C(=O)Nc1cccc(C2CCN(C[C@@H](Oc3cccc(Cl)c3)c3ccccc3)CC2)c1 [Example 335] | 888 nM
14 | COc1ccc(O[C@H](CN2CCC(c3cccc(NC(=O)C(C)C)c3)CC2)c2ccccc2)cc1OC [Example 336] | 693 nM
15 | CC(C)C(=O)Nc1cccc(C2CCN(CCCOc3cccc(Cl)c3)CC2)c1 [Example 344] | 44.6 nM
16 | CC(C)C(=O)Nc1cccc(C2CCN(CCCOc3cccc(F)c3)CC2)c1 [Example 346] | 107 nM
17 | CC(C)C(=O)Nc1cccc(C2CCN(CCCOc3ccc(F)cc3)CC2)c1 [Example 347] | 54.8 nM
18 | CC(C)C(=O)Nc1cccc(C2CCN(CCCOc3ccccc3Cl)CC2)c1 [Example 348] | 84 nM
19 | Cc1ccc(OCCCN2CCC(c3cccc(NC(=O)C(C)C)c3)CC2)cc1C [Example 349] | 20.4 nM
20 | CC(C)C(=O)Nc1cccc(C2CCN(CCCOc3cccc(Br)c3)CC2)c1 [Example 351] | 61.8 nM
21 | CC(C)C(=O)Nc1cccc(C2CCN(CCCOc3ccc(Br)cc3)CC2)c1 [Example 352] | 13.3 nM
22 | COc1ccc(O[C@H](CCN2CCC(c3cccc(N(C)C(=O)C(C)C)c3)CC2)c2ccccc2)cc1OC [Example 353] | 41.8 nM
23 | CC(=O)c1cccc(O[C@@H](CCN2CCC(c3cccc(N(C)C(=O)C(C)C)c3)CC2)c2ccccc2)c1 [Example 355] | 117 nM
24 | CC(C)C(=O)Nc1cccc(C2CCN(C[C@H](C)COc3ccc(F)cc3)CC2)c1 [Example 359] | 83.2 nM
25 | CC(C)C(=O)Nc1cccc(C2CCN(C[C@H](C)COc3ccccc3Cl)CC2)c1 [Example 361] | 311 nM
26 | CC(C)C(=O)Nc1cccc(C2CCN(C[C@H](C)COc3ccccc3F)CC2)c1 [Example 362] | 281 nM
27 | CC(C)C(=O)Nc1cccc(C2CCN(C[C@H](C)COc3cccc(Br)c3)CC2)c1 [Example 364] | 144 nM
28 | CC(C)C(=O)Nc1cccc(C2CCN(C[C@H](C)COc3ccccc3Br)CC2)c1 [Example 365] | 42.9 nM
29 | CC(C)C(=O)Nc1cccc(C2CCN(C[C@@H](C)COc3cccc(F)c3)CC2)c1 [Example 366] | 646 nM

More lines, in order of falling Ki, values ahead:

Row | Ki | SMILES
30 | 907 nM | CC(C)C(=O)Nc1cccc(C2CCN(C[C@H](Oc3ccc(F)cc3)c3ccccc3)CC2)c1 [Example 337]
31 | 890 nM | CC(C)C(=O)Nc1cccc(C2CCN(C[C@H](Oc3cccc(Cl)c3)c3ccccc3)CC2)c1 [Example 339]
32 | 844 nM | COc1cccc(O[C@@H](CN2CCC(c3cccc(NC(=O)C(C)C)c3)CC2)c2ccccc2)c1 [Example 338]
33 | 603 nM | CC(=O)c1ccccc1O[C@H](CN1CCC(c2cccc(NC(=O)C(C)C)c2)CC1)c1ccccc1 [Example 334]
34 | 568 nM | CC(=O)c1cccc(O[C@H](CN2CCC(c3cccc(NC(=O)C(C)C)c3)CC2)c2ccccc2)c1 [Example 333]
35 | 313 nM | CC(C)C(=O)Nc1cccc(C2CCN(C[C@@H](C)COc3ccccc3Cl)CC2)c1 [Example 368]
36 | 256 nM | CC(=O)c1cccc(OCCCN2CCC(c3cccc(NC(=O)C(C)C)c3)CC2)c1 [Example 341]
37 | 236 nM | CC(C)C(=O)Nc1cccc(C2CCN(C[C@@H](C)COc3ccc(F)cc3)CC2)c1 [Example 367]
38 | 195 nM | CC(C)C(=O)Nc1cccc(C2CCN(CCCOc3ccccc3F)CC2)c1 [Example 343]
39 | 183 nM | CC(=O)c1cccc(OCCCN2CCC(c3cccc(NC(=O)C4CC4)c3)CC2)c1 [Example 342]
40 | 177 nM | CC(C)C(=O)Nc1cccc(C2CCN(CC[C@H](NC(=O)c3cccc(Cl)c3)c3ccccc3)CC2)c1 [Example 305]
41 | 168 nM | CC(C)C(=O)Nc1cccc(C2CCN(CC[C@H](NC(=O)c3cc(Cl)cc(Cl)c3)c3ccccc3)CC2)c1 [Example 306]
42 | 163 nM | CC(C)C(=O)Nc1cccc(C2CCN(C[C@H](C)COc3cccc(F)c3)CC2)c1 [Example 360]
43 | 152 nM | COc1ccccc1C(=O)N[C@@H](CCN1CCC(c2cccc(NC(=O)C(C)C)c2)CC1)c1ccccc1 [Example 310]
44 | 136 nM | CC(C)C(=O)Nc1cccc(C2CCN(C[C@H](C)COc3cccc(Cl)c3)CC2)c1 [Example 358]
45 | 115 nM | CC(C)C(=O)Nc1cccc(C2CCN(C[C@H](C)COc3cc(F)c(F)cc3F)CC2)c1 [Example 357]
46 | 110 nM | Cc1nn(C)c2ncc(C(=O)N[C@@H](CCN3CCC(c4cccc(NC(=O)C(C)C)c4)CC3)c3ccccc3)c(Cl)c12 [Example 317]
47 | 97.4 nM | CCSc1ncccc1C(=O)N[C@@H](CCN1CCC(c2cccc(NC(=O)C(C)C)c2)CC1)c1ccccc1 [Example 307]
48 | 89.8 nM | CC(C)C(=O)Nc1cccc(C2CCN(CC[C@H](NC(=O)c3cccnc3)c3ccccc3)CC2)c1 [Example 319]
49 | 81.6 nM | CC(=O)c1cccc(O[C@H](CCN2CCC(c3cccc(N(C)C(=O)C(C)C)c3)CC2)c2ccccc2)c1 [Example 354]

Row | Ki | SMILES
50 | 76.8 nM | CC(C)C(=O)Nc1cccc(C2CCN(CC[C@H](NC(=O)c3ccc([N+](=O)[O-])o3)c3ccccc3)CC2)c1 [Example 324]
51 | 61.5 nM | CC(C)C(=O)Nc1cccc(C2CCN(CC[C@H](NC(=O)c3ccc(F)cc3F)c3ccccc3)CC2)c1 [Example 312]
52 | 54.5 nM | CC(C)C(=O)Nc1cccc(C2CCN(C[C@H](C)COc3ccc(Br)cc3)CC2)c1 [Example 356]
53 | 51.3 nM | Cc1onc(-c2ccccc2Cl)c1C(=O)NCCCN1CCC(c2cccc(NC(=O)C(C)C)c2)CC1 [Example 331]
54 | 47.6 nM | Cc1onc(-c2c(F)cccc2Cl)c1C(=O)NCCCN1CCC(c2cccc(NC(=O)C(C)C)c2)CC1 [Example 328]
55 | 43 nM | CC(C)C(=O)Nc1cccc(C2CCN(CC[C@H](NC(=O)c3cccc4ccccc34)c3ccccc3)CC2)c1 [Example 311]
56 | 40.1 nM | Cc1onc(-c2ccccc2)c1C(=O)OCCCCCCN1CCC(c2cccc(NC(=O)C(C)C)c2)CC1 [Example 298, 6-{4-[3-(ISOBUTYRYLAMINO)PHENYL]-1-PIPERIDINYL}HEXYL 5-METHYL-3-PHENYL-4-ISOXAZOLECARBOXYLATE]
57 | 37.5 nM | CC(C)C(=O)Nc1cccc(C2CCN(CCCCOC(=O)Cc3ccc(F)cc3)CC2)c1 [Example 299]
58 | 37 nM | CC(C)C(=O)Nc1cccc(C2CCN(CC[C@H](NC(=O)c3cccs3)c3ccccc3)CC2)c1 [Example 323]
59 | 31.6 nM | CC(C)C(=O)Nc1cccc(C2CCN(C[C@H](C)COc3ccc(Cl)cc3)CC2)c1 [Example 363]
60 | 29.8 nM | Cc1onc(-c2ccccc2)c1C(=O)NCCCN1CCC(c2cccc(NC(=O)C(C)C)c2)CC1 [Example 325]
61 | 20 nM | Cc1onc(-c2ccccc2)c1C(=O)OCCCCN1CCC(c2cccc(NC(=O)C(C)C)c2)CC1 [Example 296, 4-{4-[3-(ISOBUTYRYLAMINO)PHENYL]-1-PIPERIDINYL}BUTYL 5-METHYL-3-PHENYL-4-ISOXAZOLECARBOXYLATE]
62 | 19.2 nM | CC(C)C(=O)Nc1cccc(C2CCN(CC[C@H](NC(=O)c3ccco3)c3ccccc3)CC2)c1 [Example 326]
63 | 15.6 nM | CC(=O)c1cccc(O[C@@H](CCN2CCC(c3cccc(NC(=O)C4CC4)c3)CC2)c2ccccc2)c1 [Example 340]
64 | 15.4 nM | CC(C)C(=O)Nc1cccc(C2CCN(CCCOc3ccc(Cl)cc3)CC2)c1 [Example 345]
65 | 12.1 nM | CC(C)C(=O)Nc1cccc(C2CCN(CCCOc3ccccc3Br)CC2)c1 [Example 350]
66 | 10.6 nM | CC(C)C(=O)Nc1cccc(C2CCN(CC[C@H](NC(=O)c3ccc(F)c(F)c3)c3ccccc3)CC2)c1 [Example 320]
67 | 8.3 nM | CCCc1nn(-c2ccc(Cl)cc2)cc1C(=O)N[C@@H](CCN1CCC(c2cccc(NC(=O)C(C)C)c2)CC1)c1ccccc1 [Example 316]
68 | 7.7 nM | CC(C)C(=O)Nc1cccc(C2CCN(CC[C@H](NC(=O)c3cnn(-c4ccc([N+](=O)[O-])cc4)c3C(F)(F)F)c3ccccc3)CC2)c1 [Example 327]
69 | 7.6 nM | CC(C)C(=O)Nc1cccc(C2CCN(CC[C@H](NC(=O)c3sccc3Cl)c3ccccc3)CC2)c1 [Example 314]
